# Results: patent publication US20080081798A1, “Pharmaceutical combinations for the treatment of head-aches and migraine attacks as well as blisters and packs that contain them” (priority 2006, published 2008)
# Test system: patients suffering from migraine (moderate or severe migraine attacks)
# Assay: Double-blind, randomized, cross-over, placebo-controlled study of rizatriptan and trimebutine for treating migraine
# Type: in vivo, human
# Description: Thirty-two patients (24 women and 8 men, aged between 21 and 61, average=39.7) suffering from migraine according to the criteria of the International Headache Association were randomized to treat 2 consecutive moderate or severe attacks with a tablet of 10 mg of rizatriptan and a capsule of 200 mg of trimebutine and 2 attacks with the same amount of triptan and placebo, and vice-versa. The severity of the attacks, as well as the presence of nauseas and photophobia at the moment of ingesting the drug after 1, 2 and 4 hours were collected.
compound,measurement,setting,value
CN(C)CCc1c[nH]c2ccc(Cn3cncn3)cc12 [rizatriptan],without pain after 1 hour (share of the 38 attacks without pain),"10 mg rizatriptan tablet with 200 mg trimebutine capsule or placebo, 1 hour, of the 38 attacks, p<0.001",21.1%
same,without pain after 2 hours (share of the 67 attacks),"10 mg rizatriptan tablet with 200 mg trimebutine capsule or placebo, 2 hours, of the 67 attacks, p<0.0001",29.9%
same,adverse events present (number of attacks treated),64 attacks treated with each drug regimen,18 attacks
same,free from nausea after 1 hour,"1 hour, p<0.001",23.7%
same,free from photophobia after 1 hour,"1 hour, p<0.001",26.7%
